Article PMC4619319, “A potent anti-inflammatory peptide from the salivary glands of horsefly” (Parasites & Vectors, 2015)

Assays:
P-JNK2 = test: Western blot, LPS-induced P-JNK2 in peritoneal macrophages; type: cell-based, mouse; settings: 20 μg/mL peptide, 100 ng/mL LPS, 30 min, band density ratio to β-actin
Description: (§1) Cells were treated with different concentrations of cecropin-TY1 (0, 5, 10, and 20 μg/mL) in the presence or absence of 100 ng/mL LPS (from E. coli 0111:B4, Sigma-Aldrich, USA). After 30-min incubation, cells were washed twice with ice-cold PBS and lysed with RIPA lysis buffer (Beyotime, China) on ice for 30 min according to our previous method. Protein concentration was quantified by BCA Protein Assay Kit (Thermo, Germany). About 40 μg protein was separated on a 10 % SDS-PAGE gel and transferred to a polyvinylidene difluoride membrane. The membrane was blocked by incubating with 5 % BSA (BD, USA) dissolved in Tris-buffered solution Tween-20 (TBST, 2.42 g/L Trisbase, 8 g/L NaCl, 0.1 % Tween 20, pH 7.6) for 2 h at room temperature. The membrane was then incubated with primary antibodies against ERK, phospho-ERK, p38, phospho-p38, JNK, phospho-JNK, phospho-IκBα, NF-κB p65 and phospho-NF-κB p65 (1:2000, Cell Signaling Technology, USA) and GAPDH/β-actin (1:5000, Santa Cruz Biotechnology, USA) overnight at 4 °C, respectively. After incubation, the immunoblot was washed three times with TBST for 5 min each time, and incubated with secondary antibody (1:5000, Cell Signaling Technology, USA) at room temperature for 1 h. Signals were measured by enhanced chemiluminescence kit in a dark room after washing three times with TBST for 10 min each time (TIANGEN, China).

TNF-α production = test: LPS-stimulated TNF-α production in peritoneal macrophages (ELISA); type: cell-based, mouse; settings: 20 μg/mL peptide, 100 ng/mL LPS, 6 h
Description: (§2) Cells were incubated with peptides (0, 5, 10, and 20 μg/mL) with or without 100 ng/mL LPS (from E. coli 0111:B4, Sigma-Aldrich, USA) for 6 h. After treatment, culture medium was collected for TNF-α, IL-1β and IL-6 quantification using enzyme-linked immunosorbent assay (ELISA) kits (Dakewei, China). Cells were washed with ice-cold PBS and lysed by Trizol reagent (Life Tech, USA). Total RNA was extracted for cDNA synthesis to quantify TNF-α, IL-1β and IL-6 transcription levels by qPCR as described in qPCR section.

P-JNK1 = test: Western blot, LPS-induced P-JNK1 in peritoneal macrophages; type: cell-based, mouse; settings: 20 μg/mL peptide, 100 ng/mL LPS, 30 min, band density ratio to β-actin
Description: as §1

IL-6 production = test: LPS-stimulated IL-6 production in peritoneal macrophages (ELISA); type: cell-based, mouse; settings: 20 μg/mL peptide, 100 ng/mL LPS, 6 h
Description: as §2

IL-1β production = test: LPS-stimulated IL-1β production in peritoneal macrophages (ELISA); type: cell-based, mouse; settings: 20 μg/mL peptide, 100 ng/mL LPS, 6 h
Description: as §2

P-p65 = test: Western blot, LPS-induced P-p65 in peritoneal macrophages; type: cell-based, mouse; settings: 20 μg/mL peptide, 100 ng/mL LPS, 30 min, band density ratio to β-actin
Description: as §1

IL-6 transcription = test: LPS-stimulated IL-6 transcription in peritoneal macrophages (qPCR); type: cell-based, mouse; settings: 20 μg/mL peptide, 100 ng/mL LPS, 6 h
Description: qPCR was performed using SYBR green master mix (Takara, Japan) on a Realplex Mastercycler real-time PCR system (Eppendorf, Germany) according to the manufacturer’s instruction. The gene transcription levels were normalized to GAPDH or β-actinas as illustrated in figure legends and calculated by ΔΔCt method. The accuracy of qPCR results were checked by melting curve analysis. qPCR primers were listed in Additional file 1: Table S1.
as §2

P-IκBα = test: Western blot, LPS-induced P-IκBα in peritoneal macrophages; type: cell-based, mouse; settings: 20 μg/mL peptide, 100 ng/mL LPS, 30 min, band density ratio to β-actin
Description: as §1

[1] = Circular dichroism, secondary structural components; type: physicochemical; settings: CD, 25 °C, average of three scans
Description: CD spectra were collected on a Jasco-810 spectropolarimeter (Jasco, Tokyo, Japan) with a 1-mm path-length cell at 25 °C and 0.2-nm intervals from 190 to 260 nm. Cecropin-TY1 was dissolved in H2O, TFE/water solution, SDS/water solution and LPS/water solution at the concentration of 0.2 mg/mL. The data from three scans were averaged and smoothed using the Jasco-810 software for each spectrum. CD data were expressed as the mean residue ellipticity (θ) in deg.cm^2.dmol^−1.

P-p38 = test: Western blot, LPS-induced P-p38 in peritoneal macrophages; type: cell-based, mouse; settings: 20 μg/mL peptide, 100 ng/mL LPS, 30 min, band density ratio to β-actin
Description: as §1

P-ERK2 = test: Western blot, LPS-induced P-ERK2 in peritoneal macrophages; type: cell-based, mouse; settings: 20 μg/mL peptide, 100 ng/mL LPS, 30 min, band density ratio to β-actin
Description: as §1

[2] = LPS 50 ng/mL in water, peptide 0.2 mg/mL
[3] = LPS 100 ng/mL in water, peptide 0.2 mg/mL
[4] = LPS 200 ng/mL in water, peptide 0.2 mg/mL
[5] = LPS 400 ng/mL in water, peptide 0.2 mg/mL
[6] = SDS 5 mM in water, peptide 0.2 mg/mL
[7] = SDS 10 mM in water, peptide 0.2 mg/mL
[8] = SDS 20 mM in water, peptide 0.2 mg/mL
[9] = SDS 40 mM in water, peptide 0.2 mg/mL

Substance: GWLKKIGKKIERVGQNVRNAAISTLPIAQGAAGVAGALN-NH2 [cecropin-TY1, cecropin antimicrobial peptide from salivary glands of horsefly Tabanus yao, 39 residues, C-terminally amidated, synthesized]
- inhibition of LPS-induced P-JNK2 expression (P-JNK2): 66.1%
- reduction of LPS-induced TNF-α production (TNF-α production): 72.1%
- inhibition of LPS-induced P-JNK1 expression (P-JNK1): 61.9%
- reduction of LPS-induced IL-6 production (IL-6 production): 76.2%
- reduction of LPS-induced IL-1β production (IL-1β production): 63.4%
- inhibition of LPS-induced P-p65 expression (P-p65): 55.9%
- attenuation of LPS-stimulated IL-6 transcription (IL-6 transcription): 94.1%
- inhibition of LPS-induced P-IκBα expression (P-IκBα): 74.8%
- Beta (%) ([1]; H2O, peptide 0.2 mg/mL): 0.0%
- Helix (%) ([1]; H2O, peptide 0.2 mg/mL): 0.0%
- Random (%) ([1]; H2O, peptide 0.2 mg/mL): 71.1%
- Turn (%) ([1]; H2O, peptide 0.2 mg/mL): 28.9%
- Beta (%) [1, 2]: 32.4%
- Helix (%) [1, 2]: 0.0%
- Random (%) [1, 2]: 55.2%
- Turn (%) [1, 2]: 12.4%
- Beta (%) [1, 3]: 46.6%
- Helix (%) [1, 3]: 2.9%
- Random (%) [1, 3]: 47.4%
- Turn (%) [1, 3]: 3.1%
- Beta (%) [1, 4]: 44.5%
- Helix (%) [1, 4]: 12.7%
- Random (%) [1, 4]: 41.1%
- Turn (%) [1, 4]: 1.7%
- Beta (%) [1, 5]: 47.8%
- Helix (%) [1, 5]: 14.8%
- Random (%) [1, 5]: 37.2%
- Turn (%) [1, 5]: 0.1%
- Beta (%) [1, 6]: 17.5%
- Helix (%) [1, 6]: 45.3%
- Random (%) [1, 6]: 37.2%
- Turn (%) [1, 6]: 0.0%
- Beta (%) [1, 7]: 22.7%
- Helix (%) [1, 7]: 41.2%
- Random (%) [1, 7]: 36.1%
- Turn (%) [1, 7]: 0.0%
- Beta (%) [1, 8]: 13.4%
- Helix (%) [1, 8]: 46.6%
- Random (%) [1, 8]: 40.0%
- Turn (%) [1, 8]: 0.0%
- Beta (%) [1, 9]: 7.4%
- Helix (%) [1, 9]: 54.4%
- Random (%) [1, 9]: 38.2%
- Turn (%) [1, 9]: 0.0%
- Beta (%) ([1]; TFE/H2O 3:7, peptide 0.2 mg/mL): 28.7%
- Helix (%) ([1]; TFE/H2O 3:7, peptide 0.2 mg/mL): 28.4%
- Random (%) ([1]; TFE/H2O 3:7, peptide 0.2 mg/mL): 42.8%
- Turn (%) ([1]; TFE/H2O 3:7, peptide 0.2 mg/mL): 0.0%
- Beta (%) ([1]; TFE/H2O 5:5, peptide 0.2 mg/mL): 22.4%
- Helix (%) ([1]; TFE/H2O 5:5, peptide 0.2 mg/mL): 36.9%
- Random (%) ([1]; TFE/H2O 5:5, peptide 0.2 mg/mL): 40.7%
- Turn (%) ([1]; TFE/H2O 5:5, peptide 0.2 mg/mL): 0.0%
- Beta (%) ([1]; TFE/H2O 7:3, peptide 0.2 mg/mL): 22.4%
- Helix (%) ([1]; TFE/H2O 7:3, peptide 0.2 mg/mL): 37.8%
- Random (%) ([1]; TFE/H2O 7:3, peptide 0.2 mg/mL): 39.9%
- Turn (%) ([1]; TFE/H2O 7:3, peptide 0.2 mg/mL): 0.0%
- Beta (%) ([1]; TFE/H2O 9:1, peptide 0.2 mg/mL): 15.0%
- Helix (%) ([1]; TFE/H2O 9:1, peptide 0.2 mg/mL): 45.1%
- Random (%) ([1]; TFE/H2O 9:1, peptide 0.2 mg/mL): 39.9%
- Turn (%) ([1]; TFE/H2O 9:1, peptide 0.2 mg/mL): 0.0%
- inhibition of LPS-induced P-p38 expression (P-p38): 46.4%
- inhibition of LPS-induced P-ERK2 expression (P-ERK2): 84.9%
